Experimental data from US4910302A, “Psychotropic polycyclic imides” (American Home Products Corporation, priority 1988, dated 1990).

What was measured:
5-HT1A receptor = details: cited from earlier work
dopamine D-2 receptor = biological target: T1, dopamine D-2 receptor (Rattus norvegicus, UniProt P61169); assay: dopamine D-2 receptor binding, displacement of 3H-spiroperidol, homogenized limbic brain tissue
T1 construct: from tissue; host or cells: homogenized limbic brain tissue
Description: High affinity for the dopamine D-2 receptor was established by the standard experimental test procedure of Fields et al., Brain Res., 136 578 (1977) and Yamamura et al., eds., Neurotransmitter Receptor Binding, Raven Press, N.Y. (1978) wherein homogenized limbic brain tissue is incubated with ^3 H-spiroperidol and various concentrations of test compound, filtered and washed and shaken with Hydrofluor scintillation cocktail (National Diagnostics) and counted in a Packard 460 CD scintillation counter.

[1] = biological target: T2, serotonin 5-HT1A receptor (Rattus norvegicus, UniProt P19327); assay: serotonin 5-HT1A receptor binding, displacement of [3H] 8-OHDPAT; parameters: following the procedure of Hall et al., J. Neurochem; 44 1685 (1985); from tissue; details: for inhibition at 0.1 µM: as marked beside the value
T2 sequence (P19327 1-422): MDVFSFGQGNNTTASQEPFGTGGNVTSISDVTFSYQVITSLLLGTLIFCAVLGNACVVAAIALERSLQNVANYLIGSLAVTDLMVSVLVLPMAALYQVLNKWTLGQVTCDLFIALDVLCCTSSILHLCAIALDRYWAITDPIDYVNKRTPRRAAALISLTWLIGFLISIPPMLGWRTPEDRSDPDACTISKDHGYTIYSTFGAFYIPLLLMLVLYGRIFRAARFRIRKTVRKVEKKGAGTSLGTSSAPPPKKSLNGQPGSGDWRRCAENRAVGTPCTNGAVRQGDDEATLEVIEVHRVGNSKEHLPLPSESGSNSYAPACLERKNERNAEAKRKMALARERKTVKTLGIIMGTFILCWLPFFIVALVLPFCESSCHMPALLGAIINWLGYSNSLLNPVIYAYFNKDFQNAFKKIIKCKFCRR
From the text: High affinity for the serotonin 5-HT1A receptor was established by testing the claimed compounds ability to displace [^3 H] 8-OHDPAT (dipropylaminotetralin) from the 5HT1A serotonin receptor following the procedure of Hall et al., J. Neurochem. 44 1685 (1985). […] The anxiolytic activity of buspirone is believed to be, at least partially, due to its 5-HT1A receptor affinity (Vander Maclen et al., Eur. J. Pharmacol. 1986, 129 (1-2) […].

[2] = biological target: T2, serotonin 5-HT1A receptor; details: in words; standard for anxiolytic activity; cited from earlier work

T1 sequence (P61169 whole entry): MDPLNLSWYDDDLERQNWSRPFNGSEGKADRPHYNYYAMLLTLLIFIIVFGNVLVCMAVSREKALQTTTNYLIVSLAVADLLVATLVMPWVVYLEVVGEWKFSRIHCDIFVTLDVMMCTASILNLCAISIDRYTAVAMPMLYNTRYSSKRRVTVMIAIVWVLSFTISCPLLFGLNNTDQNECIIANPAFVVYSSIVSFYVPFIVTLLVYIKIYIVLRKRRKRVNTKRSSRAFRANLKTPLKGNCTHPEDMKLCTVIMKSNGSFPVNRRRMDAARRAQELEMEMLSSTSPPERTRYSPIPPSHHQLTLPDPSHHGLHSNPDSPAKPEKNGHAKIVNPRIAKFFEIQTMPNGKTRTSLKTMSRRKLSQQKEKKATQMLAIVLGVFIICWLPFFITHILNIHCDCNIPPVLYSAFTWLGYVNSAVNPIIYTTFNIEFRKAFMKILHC

Row | inhibition at 1 µM (dopamine D-2 receptor) [%] | inhibition at 1 µM ([1]; at 1 μM) [%] | Compound | further results
1 | – | – | O=C1CC2(CCCC2)CC(=O)N1CCCCNCC1COc2ccccc2O1 (single isomer, unassigned) [-(MDL) 72832] | binding at the 5-HT1A receptor site relative to the dextro rotatory isomer (5-HT1A receptor; ratio to dextro rotatory isomer): 32 times
2 | 100 | 100 | O=C1C2C3C=CC(C4CC34)C2C(=O)N1CCCCNCC1COc2ccccc2O1 (stereo not shown) [Example 5] | –
3 | – | – | O=C1C2C(C(=O)N1CCCCNCC1COc3ccccc3O1)C1C3CC4C(C32)C41 (stereo not drawn) [Example 3, Exo-2-[4-[(2,3-dihydro-1,4-benzodioxan-2-ylmethyl)amino]butyl]octahydro-4,5,7-metheno-1H-pentaleno[1,2c]pyrrole-1,3(2H)-dione] | D-2 Binding (% Inhibition at 1 μM) (dopamine D-2 receptor; at 1 μM): 100%; 5-HT1A Binding (% Inhibition at 1 μM) ([1]; at 1 μM): 94%
4 | 100 | 96 | O=C1C2CC(C(=O)N1CCCCNCC1COc3ccccc3O1)C1C2C2C3CC4C2C4C31 (stereo not shown) [Example 1, Decahydro-3-[4-[(2,3-dihydro-1,4-benzodioxan-2-ylmethyl)amino]butyl]-1,5-methano-6,7,9-metheno-2H-pentaleno[1,2-d]azepine-2,4(3H)-dione] | –
5 | 89 | – | O=C1C2CC(C(=O)N1CCNCC1COc3ccccc3O1)C1C2C2C3CC4C2C4C31 (stereo not shown) [Example 8, Decahydro-3-[2-[(2,3-dihydro-1,4-benzodioxan-2-ylmethyl)amino]ethyl]-1,5-methano-6,7,9-metheno-2H-pentaleno[1,2d]azepine-2,4(3H)-dione] | inhibition at 0.1 µM [1]: 100%
6 | 100 | 100 | O=C1C2C3C=CC(C4C=CC43)C2C(=O)N1CCCCNCC1COc2ccccc2O1 (stereo not shown) [Example 4, 2-[4-[(2,3-Dihydro-1,4-benzodioxan-2-ylmethyl)amino]butyl]hexahydro-4,7-etheno-1H-cyclobut[f]isoindole-1,3-(2H)-dione] | –
7 | 100 | 96 | O=C1C2C(C(=O)N1CCCCNCC1COc3ccccc3O1)C1C3CC4C(C32)C41 (stereo not drawn) [Example 2, Endo-2-[4-[(2,3-dihydro-1,4-benzodioxan-2-ylmethyl)amino]butyl]octahydro-4,5,7-metheno-1H-pentaleno[1,2-c]pyrrole-1,3(2H)-dione] | –
8 | 54 | – | O=C1C2C3C=CC(C4C=CC43)C2C(=O)N1CCNCC1COc2ccccc2O1 (stereo not shown) [Example 7, 2-[2-[(2,3-Dihydro-1,4-benzodioxan-2-ylmethyl)amino]ethyl]hexahydro-4,7-etheno-1H-cyclobut[f]isoindole-1,3-(2H)-dione] | inhibition at 0.1 µM [1]: 92%
9 | – | – | O=C1CC2(CCCC2)CC(=O)N1CCCCNCC1COc2ccccc2O1 (stereo not shown) [MDL 72832, 8-[4-(1,4-benzodioxan-2-ylmethylamino)butyl]-8-azaspiro[4.5]decane-7,9-dione] | 5-HT1A receptor ligand character (5-HT1A receptor; in words): selective and stereospecific
10 | – | – | O=C1CC2(CCCC2)CC(=O)N1CCCCN1CCN(c2ncccn2)CC1 [buspirone] | affinity for the 5-HT1A serotonin receptor subtype [2]: potent affinity
11 | 61 | – | CC1(C)[C@@H]2CC[C@@]1(C)C(=O)N(CCNCC1COc3ccccc3O1)C2=O (stereo partly shown) [Example 6] | inhibition at 0.1 µM [1]: 52%
